Measurements as given in patent US8415475B2, “Antibacterial quinoline derivatives” (Janssen Pharmaceutica N.V., priority 2006, dated 2013).
≈ marks a conversion by molar mass, not a printed value.

What was measured:
[1] = tested on: Escherichia coli (ATCC35218); assay: In-vitro anti-bacterial microtitre plate assay, IC90, E. coli; assay type: cell-based; details: 90% inhibitory concentration for bacterial growth, resazurin fluorescence; for IC90: Escherichia coli, ATCC35218, 24 h, read-out: IC90 values ECO 35218; for IC90 values ECO 35218: 24 hours
Procedure: (§1) D.3. In-Vitro Method for Testing Compounds for Anti-Bacterial Activity Against Various Non-Mycobacterial Strains The bacteria used in this study were grown overnight in flasks containing 100 ml Mueller-Hinton Broth (Becton Dickinson-cat. no. 275730) in sterile de-ionized water, with shaking, at 37° C. Stocks (0.5 ml/tube) were stored at -70° C. until use. Bacteria titrations were performed in microtiter plates to detect the TCID50, in which the TCID50 represents the dilution that gives rise to bacterial growth in 50% of inoculated cultures. In general, an inoculum level of approximately 100 TCID50 was used for susceptibility testing. Flat-bottom, sterile 96-well plastic microtiter plates were filled with 180 μl of sterile deionized water, supplemented with 0.25% BSA. Subsequently, stock solutions (7.8× final test concentration) of compounds were added in 45 μl volumes in column 2. Serial five-fold dilutions (45 μl in 180 μl) were made directly in the microtiter plates from column 2 to reach column 11. Untreated control samples with (column 1) and without (column 12) inoculum were included in each microtiter plate. Depending on the bacteria type, approximately 10 to 60 CFU per well of bacteria inoculum (100 TCID50), in a volume of 100 μl in 2.8× Mueller-Hinton broth medium, was added to the rows […]. The same volume of broth medium without inoculum was added to column 12 in row A to H. The cultures were incubated at 37° C. for 24 hours under a normal atmosphere (incubator with open air valve and continuous ventilation). At the end of incubation, one day after inoculation, the bacterial growth was quantitated fluorometrically. Therefore resazurin (0.6 mg/ml) was added in a volume of 20 μl to all wells 3 hours after inoculation, and the plates were re-incubated overnight. A change in colour from blue to pink indicated the growth of bacteria. The fluorescence was read in a computer-controlled fluorometer (Cytofluor Biosearch) at an excitation wavelength of 530 nm and an emission wavelength of 590 nm. The % growth inhibition achieved by the compounds was calculated according to standard methods.

[2] = tested on: Staphylococcus aureus (ATCC29213); assay: In-vitro anti-bacterial microtitre plate assay, IC90, S. aureus; assay type: cell-based; details: 90% inhibitory concentration for bacterial growth, resazurin fluorescence; for IC90: Staphylococcus aureus, ATCC29213, 24 h, read-out: IC90 values STA 1 B29213; for IC90 values STA 1 B29213: 24 hours
Procedure: as §1

[3] = tested on: Streptococcus pneumoniae (ATCC6305); assay: In-vitro anti-bacterial microtitre plate assay, IC90, S. pneumoniae; assay type: cell-based; details: 90% inhibitory concentration for bacterial growth, resazurin fluorescence; for IC90 values SPN 1 6305: 24 hours; for IC90: Streptococcus pneumoniae, ATCC6305, 24 h, read-out: IC90 values SPN 1 6305
Procedure: as §1

[4] = tested on: Enterococcus faecalis (ATCC29212); assay: In-vitro anti-bacterial microtitre plate assay, IC90, E. faecalis; assay type: cell-based; details: 90% inhibitory concentration for bacterial growth, resazurin fluorescence; for IC90: Enterococcus faecalis, ATCC29212, 24 h, read-out: IC90 values EFA 29212; for IC90 values EFA 29212: 24 hours
Procedure: as §1

[5] = tested on: Streptococcus pyogens (ATCC8668); assay: In-vitro anti-bacterial microtitre plate assay, IC90, S. pyogens; assay type: cell-based; details: 90% inhibitory concentration for bacterial growth, resazurin fluorescence; for IC90: Streptococcus, ATCC8668, 24 h, read-out: IC90 values SPY 8668; for IC90 values SPY 8668: 24 hours
Procedure: as §1

[6] = tested on: M. Smegmatis (ATCC607); assay: In-vitro anti-bacterial activity against strain M. smegmatis ATCC607; assay type: cell-based; details: 90% inhibitory concentration for bacterial growth, Alamar Blue fluorescence; for IC90 values MSM 1 ATCC607: 48 hours; for IC90: Mycolicibacterium smegmatis, ATCC607, 48 h, read-out: IC90 values MSM 1 ATCC607
Procedure: D.2. In-Vitro Method for Testing Compounds for Anti-Bacterial Activity Against Strain M. smegmatis ATCC607. Flat-bottom, sterile 96-well plastic microtiter plates were filled with 180 μl of sterile deionized water, supplemented with 0.25% BSA. Subsequently, stock solutions (7.8× final test concentration) of compounds were added in 45 μl volumes to a series of duplicate wells in column 2 so as to allow evaluation of their effects on bacterial growth. Serial five-fold dilutions (45 μl in 180 μl) were made directly in the microtiter plates from column 2 to 11 using a customised robot system (Zymark Corp., Hopkinton, Mass.). Pipette tips were changed after every 3 dilutions to minimize pipetting errors with high hydrophobic compounds. Untreated control samples with (column 1) and without (column 12) inoculum were included in each microtiter plate. Approximately 250 CFU per well of bacteria inoculum, in a volume of 100 μl in 2.8× Mueller-Hinton broth medium, was added to the rows […]. The same volume of broth medium without inoculum was added to column 12 in row A to H. The cultures were incubated at 37° C. for 48 hours in a humidified 5% CO2 atmosphere (incubator with open air valve and continuous ventilation). At the end of incubation, two days after inoculation, the bacterial growth was quantitated fluorometrically. Therefore Alamar Blue (10×) was added to all wells in a volume of 20 μl and plates were incubated for another 2 hours at […] The fluorescence was read in a computer-controlled fluorometer (Cytofluor, Biosearch) at an excitation wavelength of 530 nm and an emission wavelength of 590 nm (gain 30).

[7] = tested on: Mycobacterium tuberculosis (strain H37RV); assay: In-vitro method for testing compounds against M. tuberculosis; assay type: cell-based; details: 90% inhibitory concentration for bacterial growth, 7 days, Middlebrook broth, resazurin fluorescence; for IC90: Mycobacterium tuberculosis, H37RV, 168 h, read-out: IC90 values MTB 1 H37RV
[8] = tested on: Pseudomonas aeruginosa (ATCC27853); assay: In-vitro anti-bacterial microtitre plate assay, IC90, P. aeruginosa; assay type: cell-based; details: 90% inhibitory concentration for bacterial growth, resazurin fluorescence; for IC90: Pseudomonas aeruginosa, ATCC27853, 24 h, read-out: IC90 values PAE 27853; for IC90 values PAE 27853: 24 hours
Procedure: as §1

Row | SMILES | IC90 [1] [µg/mL] | IC90 [2] [µg/mL] | IC90 values SPN 1 6305 [3] [µg/mL] | IC90 [4] [µg/mL] | IC90 [5] [µg/mL] | IC90 values MSM 1 ATCC607 [6] [µg/mL] | IC90 [7] [µg/mL] | IC90 [8] [µg/mL] | IC90 values STA 1 B29213 [2] [µg/mL] | IC90 values EFA 29212 [4] [µg/mL] | melting point [°C] | IC90 values SPY 8668 [5] [µg/mL] | IC90 values MTB 1 H37RV [7] [µg/mL] | IC90 values PAE 27853 [8] [µg/mL] | IC90 [6] [µg/mL] | IC90 values ECO 35218 [1] [µg/mL] | IC90 [3] [µg/mL]
1 | COc1nc2ccc(N3CCOCC3)cc2cc1C(c1ccccc1)C(O)(CCN(C)C)c1ccccc1 (single isomer, unassigned) [Compound 5] | 51.2 (≈ 100 µM) | 40.6 (≈ 79.3 µM) | 9.1 (≈ 17.8 µM) | 40.6 (≈ 79.4 µM) | 40.6 (≈ 79.4 µM) | 0.04 (≈ 0.0782 µM) |  |  |  |  |  |  |  |  |  |  | 
2 | C=Cc1ccc2nc(OC)c(C(c3ccccc3)C(O)(CCN(C)C)c3cccc4ccccc34)cc2c1 (single isomer, unassigned) [Compound 8] | 50.3 (≈ 100 µM) |  | 2.0 (≈ 3.98 µM) | 50.3 (≈ 100 µM) | 50.3 (≈ 100 µM) |  | 3.6 (≈ 7.16 µM) | 44.8 (≈ 89.1 µM) | 50.3 (≈ 100 µM) |  |  |  |  |  |  |  | 
3 | C/C=C/c1ccc2nc(OC)c(C(c3ccccc3)C(O)(CCN(C)C)c3cccc4ccccc34)cc2c1 (single isomer, unassigned) [Compound 11] |  |  | 1.8 (≈ 3.48 µM) |  |  | 0.01 (≈ 0.0194 µM) |  | 51.7 (≈ 100 µM) | 51.7 (≈ 100 µM) | 51.67 (≈ 100 µM) | 190 | 51.67 (≈ 100 µM) |  |  |  |  | 
4 | COc1nc2ccc(N)cc2cc1C(c1ccccc1)C(O)(CCN(C)C)c1cccc2ccccc12 (single isomer, unassigned) [Compound 15] |  |  | 7.8 (≈ 15.9 µM) |  |  | 0.3 (≈ 0.61 µM) |  |  | 7.8 (≈ 15.9 µM) |  | 205 |  | 1.6 (≈ 3.25 µM) |  |  |  | 
5 | COc1nc2ccc(/C=N/O)cc2cc1C(c1ccccc1)C(O)(CCN(C)C)c1cccc2ccccc12 (single isomer, unassigned) [Compound 23] | 52 (≈ 100 µM) |  | 0.3 (≈ 0.577 µM) | 18.4 (≈ 35.5 µM) | 8.24 (≈ 15.9 µM) | 0.3 (≈ 0.577 µM) | 7.3 (≈ 14 µM) | 8.24 (≈ 15.9 µM) | 6.5 (≈ 12.5 µM) |  | 187 |  |  |  |  |  | 
6 | CO/N=C/c1ccc2nc(OC)c(C(c3ccccc3)C(O)(CCN(C)C)c3cccc4ccccc34)cc2c1 (single isomer, unassigned) [Compound 25] | 53.4 (≈ 100 µM) |  | 2.1 (≈ 3.94 µM) |  |  |  |  |  | 8.5 (≈ 15.9 µM) | 8.46 (≈ 15.9 µM) | 228 | 8.46 (≈ 15.9 µM) | 1.7 (≈ 3.19 µM) | 8.46 (≈ 15.9 µM) | 0.3 (≈ 0.562 µM) |  | 
7 | CO/N=C/c1ccc2nc(OC)c(C(c3ccccc3)C(O)(CCN(C)C)c3cccc4ccccc34)cc2c1 (single isomer, unassigned) [Compound 26] |  |  | 18.9 (≈ 35.4 µM) |  |  | 0.3 (≈ 0.562 µM) |  |  | 53.4 (≈ 100 µM) | 53.37 (≈ 100 µM) | 170 | 53.37 (≈ 100 µM) | 8.5 (≈ 15.9 µM) | 53.37 (≈ 100 µM) |  | 53.37 (≈ 100 µM) | 
8 | COc1nc2ccc(CNC(C)=O)cc2cc1C(c1ccccc1)C(O)(CCN(C)C)c1cccc2ccccc12 (single isomer, unassigned) [Compound 27] |  | 34.6 (≈ 63.2 µM) |  |  |  |  | 21.8 (≈ 39.8 µM) |  |  |  | 203 |  |  |  | 4.4 (≈ 8.03 µM) |  | 8.7 (≈ 15.9 µM)
9 | COc1nc2ccc(N3CCOCC3)cc2cc1C(c1ccccc1)C(O)(CCN(C)C)c1cccc2ccccc12 (single isomer, unassigned) [Compound 30] | 56.2 (≈ 100 µM) | 44.6 (≈ 79.4 µM) |  | 44.6 (≈ 79.4 µM) | 44.6 (≈ 79.4 µM) |  | 8.9 (≈ 15.8 µM) | 22.4 (≈ 39.8 µM) |  |  | 210 |  |  |  | 0.1 (≈ 0.178 µM) |  | 14.1 (≈ 25.1 µM)
10 | COc1nc2ccc(C(=O)N3CCN(C)CC3)cc2cc1C(c1ccccc1)C(O)(CCN(C)C)c1cccc2ccccc12 (single isomer, unassigned) [Compound 31] |  | 38 (≈ 63 µM) |  |  |  |  | 4.8 (≈ 7.96 µM) |  |  |  | 195 |  |  |  | 0.4 (≈ 0.664 µM) |  | 10.7 (≈ 17.8 µM)
11 | COc1nc2ccc(N3CCOCC3)cc2cc1C(c1ccccc1)C(O)(CCN(C)C)c1ccccc1 (single isomer, unassigned) [Compound 36] |  |  | 51.2 (≈ 100 µM) |  |  | 8.1 (≈ 15.8 µM) |  |  | 51.2 (≈ 100 µM) | 51.2 (≈ 100 µM) | 190 | 40.6 (≈ 79.3 µM) |  |  |  | 51.2 (≈ 100 µM) | 
12 | C=Cc1ccc2nc(OC)c(C(c3ccccc3)C(O)(CCN(C)C)c3cccc4ccccc34)cc2c1 (stereo not drawn) [Compound 9] | 50.3 (≈ 100 µM) | 50.3 (≈ 100 µM) |  | 50.3 (≈ 100 µM) | 50.3 (≈ 100 µM) |  | 0.2 (≈ 0.398 µM) | 50.3 (≈ 100 µM) |  |  |  |  |  |  | 0.003 (≈ 0.00597 µM) |  | 0.3 (≈ 0.597 µM)
13 | COc1nc2ccc(CN)cc2cc1C(c1ccccc1)C(O)(CCN(C)C)c1cccc2ccccc12 (stereo not drawn) [Compound 18] |  |  | 3.6 (≈ 7.12 µM) |  |  | 0.4 (≈ 0.791 µM) |  |  | 8.0 (≈ 15.8 µM) | 17.94 (≈ 35.5 µM) |  | 6.37 (≈ 12.6 µM) | 1.6 (≈ 3.16 µM) | 8.01 (≈ 15.8 µM) |  | 8.01 (≈ 15.8 µM) | 
14 | COc1nc2ccc(CN)cc2cc1C(c1ccccc1)C(O)(CCN(C)C)c1cccc2ccccc12 (stereo not drawn) [Compound 19] |  | 8 (≈ 15.8 µM) |  |  | 8.01 (≈ 15.8 µM) | 1.6 (≈ 3.16 µM) |  | 8.01 (≈ 15.8 µM) |  | 40.17 (≈ 79.4 µM) |  |  | 8.0 (≈ 15.8 µM) |  |  | 40.17 (≈ 79.4 µM) | 1.8 (≈ 3.56 µM)
